These results are taken from patent US10093678B2, “Azaspiro derivatives as TRPM8 antagonists” (RaQualia Pharma Inc., priority 2014, dated 2018).

For orientation: IC50 means the point on the concentration scale where inhibition reaches its midpoint.

The target of the experiment is T1, human TRPM8 (Homo sapiens, UniProt Q7Z2W7).
T1 construct: expressed in transfected cells; host or cells: HEK293
T1 sequence (Q7Z2W7 whole entry): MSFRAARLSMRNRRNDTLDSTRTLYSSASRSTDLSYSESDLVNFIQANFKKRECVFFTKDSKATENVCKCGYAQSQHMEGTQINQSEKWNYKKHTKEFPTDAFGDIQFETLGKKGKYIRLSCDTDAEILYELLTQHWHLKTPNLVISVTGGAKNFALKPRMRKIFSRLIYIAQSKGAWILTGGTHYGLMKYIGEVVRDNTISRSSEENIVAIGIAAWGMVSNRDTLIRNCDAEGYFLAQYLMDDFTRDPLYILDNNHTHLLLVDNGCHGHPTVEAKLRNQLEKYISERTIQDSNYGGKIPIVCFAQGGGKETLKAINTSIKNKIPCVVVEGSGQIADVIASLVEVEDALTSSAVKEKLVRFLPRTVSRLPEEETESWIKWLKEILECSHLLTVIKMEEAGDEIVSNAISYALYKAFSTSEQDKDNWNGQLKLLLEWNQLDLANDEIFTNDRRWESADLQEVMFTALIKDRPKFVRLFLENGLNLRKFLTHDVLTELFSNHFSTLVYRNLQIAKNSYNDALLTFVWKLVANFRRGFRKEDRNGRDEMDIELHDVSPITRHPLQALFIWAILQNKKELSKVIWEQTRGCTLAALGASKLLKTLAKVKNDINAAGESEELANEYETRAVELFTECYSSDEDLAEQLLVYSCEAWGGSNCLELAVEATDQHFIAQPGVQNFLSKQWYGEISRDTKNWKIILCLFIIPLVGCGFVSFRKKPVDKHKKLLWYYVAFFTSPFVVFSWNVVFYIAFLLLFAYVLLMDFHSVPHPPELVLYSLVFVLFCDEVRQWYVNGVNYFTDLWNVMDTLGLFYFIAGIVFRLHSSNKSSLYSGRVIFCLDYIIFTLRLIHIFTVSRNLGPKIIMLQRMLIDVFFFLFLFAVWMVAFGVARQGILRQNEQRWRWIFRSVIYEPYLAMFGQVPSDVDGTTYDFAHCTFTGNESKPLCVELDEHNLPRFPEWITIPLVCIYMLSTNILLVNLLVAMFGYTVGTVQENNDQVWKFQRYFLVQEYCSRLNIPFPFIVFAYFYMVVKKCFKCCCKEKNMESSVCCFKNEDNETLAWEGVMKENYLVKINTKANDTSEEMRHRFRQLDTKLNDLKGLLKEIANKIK
In words: Menthol-induced Ca2+ influx in HEK293 cells stably expressing human TRPM8. It counts as cell-based. The note with it: 30 microM menthol-induced Ca2+ influx, read-out: IC50 against TRPM8. Here is the method:
Measurement of the Menthol-Induced Ca^2+ Influx in HEK293 Cells Stably Expressing Human TRPM8
A cell-based Ca^2+ influx assay using HEK293 cells stably expressing human TRPM8 is used to identify the activity of compounds.
HEK293 cells stably expressing human TRPM8 are grown in T175 flasks at 37° C. in a 5% CO2 humidified incubator to about 80% confluence. Media composition consists of Dulbecco's Modified Eagle Medium (high glucose), 10% fetal calf serum (FCS), 100 units/mLPenicillin, 100 microg/mL Streptomycin and 600 microg/mL Geneticine. At 24 hours prior to assay, cells are seeded in poly-D-lysine coated 384-well plates (BD FALCON) at a density of 30,000 cells per well in culture medium and grown overnight in 5% CO2 at 37° C. On the assay day, growth media is removed and cells are loaded with 0.5 microM Fluo4-AM (Molecular Probes) and 0.005% Pluronic F-127 dissolved in assay buffer (Hank's balanced salt solution (HBSS), 19.4 mM HEPES pH7.4, 2.5 mM Probenecid) for 1 hour at room temperature. After washing with assay buffer, the cells are preincubated with various concentrations of the compounds for 5 min. The changes in intracellular calcium concentration by addition of 30 microM menthol are monitored by the cell imaging technology by Hamamatsu Photonics Functional Drug Screening System (FDSS).
The IC50 values for compounds of the present invention are determined from 11-point dose-response studies. Curves are generated using the average of duplicate wells for each data point. Finally, the IC50 values are calculated with the best-fit dose curve determined by XLfit (ID Business Solutions Ltd.).
For the molecule `N#Cc1cccc(-c2ccc(C(=O)CN3C(=O)NC4(CCCCC4)C3=O)cn2)c1` [Example 9-9], the IC50 is under 100 nM.

In the case of `Cc1cc(C(=O)CN2C(=O)NC3(CCC(F)(F)CC3)C2=O)n(C)c1-c1cccc(C#N)c1` [Example 16-4], the IC50 is under 10 nM.

Take `O=C(CN1C(=O)NC2(CCC(F)(F)CC2)C1=O)c1ccc(-c2nccc3[nH]ccc23)cc1` [Example 6-24]: the IC50 was under 100 nM.

As for `O=C(CN1C(=O)NC2(CCCCC2)C1=O)c1ccc(-c2cccnc2)nc1` [Example 5-2], the IC50 is under 100 nM.

On to `O=C(CN1C(=O)NC2(CCC(F)(F)CC2)C1=O)c1ccc(-c2nccnc2CO)cc1F` [Example 8-9], for which the IC50 is under 100 nM.

Regarding `COc1ccccc1-c1ccc(C(=O)CN2C(=O)NC3(CCCCC3)C2=O)cc1` [Example 13-3], the IC50 was under 100 nM.

In the case of `Cc1nc(C(=O)CN2C(=O)NC3(CCC(F)(F)CC3)C2=O)sc1-c1ccccc1` [Example 4-5], the IC50 was under 100 nM.

For `O=C(CN1C(=O)NC2(CCC(F)(F)CC2)C1=O)c1ccc(-c2cncc3ccccc23)cc1` [Example 13-37], the IC50 is under 10 nM.

Take `Cc1ccc(C)c(-c2ccc(C(=O)CN3C(=O)NC4(CCC(F)(F)CC4)C3=O)cc2)c1` [Example 6-78]: the IC50 is under 500 nM.

Consider `O=C(CN1C(=O)NC2(CCC(F)(F)CC2)C1=O)c1ccc(-n2cnc3ncccc32)cc1` [Example 5-11], for which the IC50 was under 100 nM.

Consider `Cc1ccnnc1-c1ccc(C(=O)CN2C(=O)OC3(CCC(F)(F)CC3)C2=O)cc1` [Example 7-21], for which the IC50 was under 100 nM.

As to `Nc1cccnc1-c1ccc(C(=O)CN2C(=O)NC3(CCC(F)(F)CC3)C2=O)cc1` [Example 6-80], the IC50 is under 500 nM.

Regarding `O=C(CN1C(=O)NC2(CCC(F)(F)CC2)C1=O)c1ccc(-c2cccc3[nH]ncc23)cc1` [Example 13-40], the IC50 was under 100 nM.

Regarding `N#Cc1nccnc1-c1ccc(C(=O)CN2C(=O)NC3(CCC(F)(F)CC3)C2=O)c(F)c1` [Example 8-8], the IC50 is under 100 nM.

For the molecule `Cn1c(=O)n(-c2ccc(C(=O)CN3C(=O)NC4(CCC(F)(F)CC4)C3=O)cc2)c2ccccc21` [Example 19-23], the IC50 is under 100 nM.

For `Cn1c(C(=O)CN2C(=O)NC3(CCC(F)(F)CC3)C2=O)ccc1-c1ccccc1CO` [Example 16-30], the IC50 was under 500 nM.

As for `O=C(CN1C(=O)NC2(CCC(F)(F)CC2)C1=O)c1ccc(Cc2ccccn2)cc1` [Example 6-119], the IC50 is under 500 nM.

Consider `Cc1nc2cccnc2n1-c1ccc(C(=O)CN2C(=O)NC3(CCCCCC3)C2=O)cc1` [Example 5-32], for which the IC50 is under 100 nM.

Take `O=C(CN1C(=O)NC2(CCC(F)(F)CC2)C1=O)c1ccc(-c2ccccn2)cc1` [Example 13-49]: the IC50 was under 100 nM.

Consider `Cc1nc2cccnc2n1-c1ccc(C(=O)CN2C(=O)NC3(CCC(F)(F)CC3)C2=O)cc1` [Example 5-10], for which the IC50 was under 10 nM.

`Cc1cc(C(=O)CN2C(=O)NC3(CCC(F)(F)CC3)C2=O)c(C)n1-c1nnn(C)n1` [Example 3-21]: the IC50 is under 500 nM.

For `O=C(CN1C(=O)NC2(CCC(F)(F)CC2)C1=O)c1ccc(Sc2ncccn2)cc1` [Example 5-39], the IC50 was under 100 nM.

On to `Cc1nc(C(=O)CN2C(=O)NC3(CCC(F)(F)CC3)C2=O)sc1-c1cccc(C#N)c1` [Example 18-3], for which the IC50 was under 100 nM.

`COc1cncc(-c2ccc(C(=O)CN3C(=O)NC4(CCC(F)(F)CC4)C3=O)cc2)c1` [Example 6-90]: the IC50 was under 500 nM.

As to `O=C(CN1C(=O)NC2(CCC(F)(F)CC2)C1=O)c1cc(F)c(-c2ccccc2CO)c(F)c1` [Example 13-32], the IC50 is under 100 nM.

`Cc1cc(C(=O)CN2C(=O)NC3(CCC(F)(F)CC3)C2=O)ccc1-c1cncc(F)c1` [Example 13-8]: the IC50 is under 100 nM.

For `O=C(CN1C(=O)NC2(CCCCC2)C1=O)c1ccc(Oc2cccnc2)nc1` [Example 20-2], the IC50 is under 500 nM.

For the molecule `Cc1nc(C(=O)CN2C(=O)NC3(CCC(F)(F)CC3)C2=O)n(C)c1-c1cccc(C#N)c1` [Example 17-8], the IC50 is under 100 nM.

Turning to `O=C(CN1C(=O)NC2(CCC(F)(F)CC2)C1=O)c1ccc(-n2cnc3cccnc32)cc1` [Example 5-9], the IC50 was under 10 nM.

Take `NCc1nc2ccccc2n1-c1ccc(C(=O)CN2C(=O)NC3(CCC(F)(F)CC3)C2=O)cc1` [Example 5-16, 3-(2-(4-(2-(aminomethyl)-1H-benzo[d]imidazol-1-yl)phenyl)-2-oxoethyl)-8,8-difluoro-1,3-diazaspiro[4.5]decane-2,4-dione]: the IC50 is under 500 nM.

Regarding `Cc1cnc(-n2c(C)cc(C(=O)CN3C(=O)NC4(CCC(F)(F)CC4)C3=O)c2C)s1` [Example 3-17], the IC50 was under 100 nM.

As to `O=C(CN1C(=O)NC2(CCC(F)(F)CC2)C1=O)c1ccc(-n2c(CO)nc3ccccc32)cc1` [Example 5-15, 8,8-difluoro-3-(2-(4-(2-(hydroxymethyl)-1H-benzo[d]imidazol-1-yl)phenyl)-2-oxoethyl)-1,3-diazaspiro[4.5]decane-2,4-dione], the IC50 was under 100 nM.

Turning to `O=C(CN1C(=O)NC2(CCC(F)(F)CC2)C1=O)c1ccc(Oc2ncccc2Cl)cc1` [Example 21-2, 3-(2-(4-((3-chloropyridin-2-yl)oxy)phenyl)-2-oxoethyl)-8,8-difluoro-1,3-diazaspiro[4.5]decane-2,4-dione], the IC50 was under 100 nM.

As for `COCc1nc2cccnc2n1-c1ccc(C(=O)CN2C(=O)NC3(CCC(F)(F)CC3)C2=O)cc1` [Example 24-4], the IC50 is under 500 nM.

With `O=C(CN1C(=O)NC2(CCC(F)(F)CC2)C1=O)c1ccc(-c2nccn3ccnc23)cc1` [Example 6-85], the IC50 is under 500 nM.

For `COCc1ccccc1-c1ccc(C(=O)CN2C(=O)NC3(CCC(F)(F)CC3)C2=O)cc1` [Example 6-114], the IC50 was under 100 nM.

Regarding `Cc1cncc(-n2c(C)cc(C(=O)CN3C(=O)NC4(CCCCC4)C3=O)c2C)n1` [Example 3-3], the IC50 is under 100 nM.

For the molecule `N#Cc1cccc(-c2ccc(C(=O)CN3C(=O)NC4(CCCCC4)C3=O)cc2)n1` [Example 7-5], the IC50 is under 100 nM.

As to `O=C(CN1C(=O)NC2(CCC(F)(F)CC2)C1=O)c1ccc(-c2cccc3cnccc23)nc1` [Example 9-21], the IC50 was under 100 nM.

With `O=C(CN1C(=O)NC2(CCC(F)(F)CC2)C1=O)c1ccc(-c2ncnc3cnccc23)cc1` [Example 6-51], the IC50 was under 500 nM.

In the case of `Cc1nc(C(=O)CN2CC3(CCC(F)(F)CC3)OC2=O)c(C)n1-c1cccc(F)c1` [Example 2-18], the IC50 was under 500 nM.

As to `O=C(CN1C(=O)NC2(CCC(F)(F)CC2)C1=O)c1ccc(-n2ccc3cccnc32)cc1` [Example 19-17], the IC50 is under 100 nM.

For `O=C(CN1C(=O)NC2(CCCCC2)C1=O)c1ccc(Oc2cccc(Cl)c2)nc1` [Example 20-1, 3-(2-(6-(3-chlorophenoxy)pyridin-3-yl)-2-oxoethyl)-1,3-diazaspiro[4.5]decane-2,4-dione], the IC50 is under 100 nM.

On to `O=C(CN1C(=O)NC2(CCC(F)(F)CC2)C1=O)c1ccc(-c2ccccc2CO)cc1` [Example 13-34], for which the IC50 was under 10 nM.

For `Cc1nc(C(=O)CN2C(=O)NC3(CCC(F)(F)CC3)C2=O)sc1-c1cncc(F)c1` [Example 18-9], the IC50 was under 100 nM.

Turning to `N#Cc1nccnc1-c1ccc(C(=O)CN2CC3(CCC(F)(F)CC3)OC2=O)cc1` [Example 7-15], the IC50 is under 500 nM.
